Columns and labels:
Details in all cases: 72 h
Caco-2 [1] = test: relative viability EC50 (midpoint between 100% and the lowest measured viability); higher = less toxic
U2OS [2] = test: as above
Vero E6 [3] = test: as above
HepG2 [4] = test: as above
Calu-3 [5] = test: as above
Caco-2 [6] = test: drug sensitivity score (DSS) for viability; higher = more toxic; extreme values may be limits of the assay
U2OS [7] = test: as above
Vero E6 [8] = test: as above
HepG2 [9] = test: as above
Calu-3 [10] = test: as above
Caco-2 [11] = test: cell viability relative to DMSO; higher = less toxic
U2OS [12] = test: as above
Vero E6 [13] = test: as above
HepG2 [14] = test: as above
Calu-3 [15] = test: as above

Row | SMILES | relative viability EC50 (Caco-2 [1]) [µM] | relative viability EC50 (U2OS [2]) [µM] | relative viability EC50 (Vero E6 [3]) [µM] | relative viability EC50 (HepG2 [4]) [µM] | relative viability EC50 (Calu-3 [5]) [µM] | drug sensitivity score (Caco-2 [6]) | drug sensitivity score (U2OS [7]) | drug sensitivity score (Vero E6 [8]) | drug sensitivity score (HepG2 [9]) | drug sensitivity score (Calu-3 [10]) | cell viability (Caco-2 [11]; 1 nM) [%] | cell viability (Caco-2 [11]; 10 nM) [%] | cell viability (Caco-2 [11]; 100 nM) [%] | cell viability (Caco-2 [11]; 1000 nM) [%] | cell viability (Caco-2 [11]; 10000 nM) [%] | cell viability (U2OS [12]; 1 nM) [%] | cell viability (U2OS [12]; 10 nM) [%] | cell viability (U2OS [12]; 100 nM) [%] | cell viability (U2OS [12]; 1000 nM) [%] | cell viability (U2OS [12]; 10000 nM) [%] | cell viability (Vero E6 [13]; 1 nM) [%] | cell viability (Vero E6 [13]; 10 nM) [%] | cell viability (Vero E6 [13]; 100 nM) [%] | cell viability (Vero E6 [13]; 1000 nM) [%] | cell viability (Vero E6 [13]; 10000 nM) [%] | cell viability (HepG2 [14]; 1 nM) [%] | cell viability (HepG2 [14]; 10 nM) [%] | cell viability (HepG2 [14]; 100 nM) [%] | cell viability (HepG2 [14]; 1000 nM) [%] | cell viability (HepG2 [14]; 10000 nM) [%] | cell viability (Calu-3 [15]; 1 nM) [%] | cell viability (Calu-3 [15]; 10 nM) [%] | cell viability (Calu-3 [15]; 100 nM) [%] | cell viability (Calu-3 [15]; 1000 nM) [%] | cell viability (Calu-3 [15]; 10000 nM) [%]
1 | O=C(Nc1ccccc1Br)N[C@@H]1CCN(c2ccc(C(F)(F)F)cn2)C1 | > 10 | > 10 | > 10 | > 10 | > 10 | 0 | 0 | 0 | 0 | 0 | 86.7 | 97.2 | 97.9 | 98 | 86.9 | 98.9 | 102 | 97.4 | 104 | 94.7 | 108 | 100 | 103 | 99.8 | 96.9 | 103 | 106 | 103 | 97.8 | 99.2 | 96.1 | 98.5 | 97.1 | 97.4 | 96.8
2 | CC1(C)CCC(C)(C)c2c1cc(C(=O)Nc1cc(F)c(C(=O)O)c(F)c1)c(O)c2Cl | > 10 | > 10 | > 10 | > 10 | > 10 | 0.8 | 0 | 0 | 0 | 1.9 | 105 | 94.3 | 96 | 86.9 | 85.7 | 100 | 96.9 | 90.7 | 97.2 | 92.7 | 95.4 | 105 | 105 | 94.2 | 95.5 | 102 | 105 | 115 | 112 | 92.7 | 105 | 92.8 | 89.9 | 86.5 | 85.7
3 | CN(C)[C@@H]1C(O)=C(C(N)=O)C(=O)[C@@]2(O)C(O)=C3C(=O)c4c(O)cccc4[C@@](C)(O)[C@H]3C[C@@H]12 [tetracycline] | > 10 | > 10 | > 10 | > 10 | > 10 | 0 | 0 | 0 | 0 | 0 | 101 | 88.2 | 98.8 | 97.1 | 93.8 | 104 | 98.5 | 102 | 95 | 97.2 | 100 | 102 | 100 | 101 | 95.5 | 107 | 96.4 | 107 | 108 | 95.4 | 99.6 | 106 | 100 | 107 | 108
4 | N=C(N)NC(=N)NCCc1ccccc1 [phenformin] | > 10 | > 10 | > 10 | > 10 | > 10 | 0.5 | 0 | 0 | 0.3 | 0 | 86.7 | 101 | 93.7 | 91.8 | 81.5 | 95.9 | 97.6 | 93.8 | 98.8 | 97.1 | 98.8 | 95.3 | 107 | 98.4 | 96.4 | 106 | 101 | 102 | 98 | 85.8 | 90.2 | 100 | 96.5 | 98.8 | 102
5 | O=C/C=C/c1ccccc1 [cinnamaldehyde] | > 10 | > 10 | > 10 | > 10 | > 10 | 0 | 0 | 0 | 0 | 0 | 103 | 94.2 | 96.9 | 97.6 | 101 | 106 | 99.2 | 98.6 | 96.8 | 99.4 | 92.3 | 99.5 | 96.7 | 98.7 | 95.9 | 97.8 | 100 | 108 | 108 | 97.5 | 90.3 | 105 | 105 | 95.1 | 102
6 | CCN(Cc1ccc(Cl)nc1)/C(=C/[N+](=O)[O-])NC [nitenpyram] | > 10 | > 10 | > 10 | > 10 | > 10 | 0 | 0 | 0 | 0 | 0 | 95.8 | 100 | 95 | 97.5 | 98.3 | 99 | 97 | 98 | 100 | 101 | 103 | 104 | 98.1 | 96.9 | 105 | 104 | 98.7 | 105 | 97.5 | 108 | 101 | 94 | 93.5 | 104 | 94
7 | COc1ccc(CCNCC(O)COc2cccc(C)c2)cc1OC (stereo not given) [bevantolol] | > 10 | > 10 | > 10 | > 10 | > 10 | 0 | 0 | 0 | 0 | 0 | 94.3 | 111 | 103 | 90.3 | 104 | 101 | 95.9 | 101 | 101 | 99.8 | 98.5 | 95.8 | 94.7 | 90.1 | 98.7 | 90.1 | 87.2 | 99.7 | 89.8 | 92.1 | 107 | 103 | 102 | 113 | 96

Reference: the supplement of paper PMC13380429
